The test system of assay [1] is TNF-alpha. The assay is described as follows: TNF-alpha expression in colon tissue (ELISA), TNBS colitis, first experiment. In kind it is in vivo, ICR male mice. To be noted: Table 4 (group 1), TNBS-treated mice, 10 mg/kg orally, 3 days. The method, then: (§1) Among the experimental groups, one group was set as a normal group, and for the experimental animals in other groups, colitis was induced with 2,4,6-trinitrobenzenesulfonic acid (TNBS). In detail, after lightly anesthetizing the experimental animals with ether, 0.1 ml of the solution prepared by mixing […] of 2,4,6-Trinitrobenzene sulfonic acid (NBS) solution with 50% ethanol was injected into the colon through the anus using a syringe having 1 ml volume and oval point, respectively; and then, the syringe was vertically picked up, and then, maintained for 30 seconds to induce the inflammation. Meanwhile, 0.1 ml of normal saline solution was orally administered to the normal group. Since then, from the next day, the sample dissolved in normal saline solution was orally administered in the volume that was decided in advance one time a day for 3 days. At the next day after completing the sample administration, the experimental animals were suffocated to death with carbon dioxide, the colon from appendix to the region just before the anus was removed from the colon region.
250 μl of RIPA butter including protease inhibitor cocktail was added to 100 mg of the colon tissue of experimental animal, and then, the colon tissue was homogenized. Since then, the homogenized colon tissue was centrifuged under the conditions of 4° C. and 13000 rpm for 15 minutes to obtain supernatant. While the supernatant was stored at −80° C., the expression amounts of IL-1 beta, IL-6, and TNF-alpha were measured using a 96-well ELISA plate kits (Pierce Biotechology, Inc., Rockford, Ill., USA).
For orientation: An ELISA detects its analyte on a solid surface through an enzyme-linked reagent.

The test system of assay [2] is TNF-alpha. The assay is described as follows: TNF-alpha expression in colon tissue (ELISA), TNBS acute colitis, third experiment. In kind it is in vivo, male mice (C57BL/6). The settings on record: Table 12; TNBS-treated mice, 10 mg/kg orally, 3 days. The method, then:
(§2) Meanwhile, 0.1 ml of normal saline solution was orally administered to the normal group. Since then, from the next day, the sample dissolved in normal saline solution was orally administered in the volume that was decided in advance one time a day for 3 days. At the next day after completing the sample administration, the experimental animals were suffocated to death with carbon dioxide, and the colon from appendix to the region just before the anus was removed from the colon region. At this time, as a medicine sample, the experiments using the butanol-soluble fraction of the Anemarrhena asphodeloides Bunge extract, Mangiferin, and a combined extract were separately performed at a distance of time, respectively, and the effects of the medicine samples on preventing or treating colitis were reasonably analyzed based on the group supplied with normal saline solution instead of a specific medicine in the model animals with acute colitis induced by TNBS for each of the experiments. […] While the supernatant was stored at −80° C., the expression amounts of IL-1 beta, IL-6, and TNF-alpha, which were proinflammatory cytokines, and the expression amount of IL-10, which was anti-inflammatory cytokine, were measured using a 96-well ELISA plate kits (Pierce Biotechology, Inc., Rockford, Ill., USA).

The next assay relates to IL-6. In words: IL-6 expression in colon tissue (ELISA), TNBS colitis, second experiment. In kind it is in vivo, ICR male mice. To be noted: Table 9, extract-based samples, TNBS-treated mice, 10 mg/kg orally, 3 days. The method, then:
as §1, with “At the next day after completing the sample administration, the experimental animals were suffocated to death with carbon dioxide, the colon from appendix to the region just before the anus was removed from the colon region.” left out
(§3) 250 μl of RIPA butter including protease inhibitor cocktail was added to 100 mg of the colon tissue of experimental animal, and then, the colon tissue was homogenized. […] While the supernatant was stored at −80° C., the expression amounts of IL-1 beta, IL-6, and TNF-alpha were measured using a 96-well ELISA plate kits (Pierce Biotechology, Inc., Rockford, Ill., USA).

Another assay relates to Myeloperoxidase (MPO). The assay is described as follows: MPO activity of colon tissue, TNBS acute colitis, third experiment. It counts as in vivo, male mice (C57BL/6). To be noted: Table 12; TNBS-treated mice, 10 mg/kg orally, 3 days. The method, then:
as §2, with “Since then, the homogenized colon tissue was centrifuged under the conditions of 4° C. and 13000 rpm for 15 minutes, and then,” for “While”, “supernatant thereof” for “supernatant”, “obtained. […] Since then, 100 μl of a stop solution was added to stop the reaction, and then, the absorbance was measured” for “stored”, “450 nm” for “−80° C., the expression amounts of IL-1 beta, IL-6, and TNF-alpha, which were proinflammatory cytokines, and the expression amount of IL-10, which was anti-inflammatory cytokine, were measured”, “an” for “a 96-well”, “reader.” for “plate kits (Pierce Biotechology, Inc., Rockford, Ill., USA).”

Another assay deals with IL-1 beta. The assay is described as follows: IL-1 beta expression in colon tissue (ELISA), TNBS colitis, second experiment. In kind it is in vivo, ICR male mice. To be noted: Table 9, extract-based samples, TNBS-treated mice, 10 mg/kg orally, 3 days. The method, then: as §1, with “At the next day after completing the sample administration, the experimental animals were suffocated to death with carbon dioxide, the colon from appendix to the region just before the anus was removed from the colon region.” left out
as §3

The structures appear in SMILES notation.

Turning to `Nc1ccc(O)c(C(=O)O)c1` [mesalazine, Mesalazine], the TNF-alpha conc. with TNF-alpha [1] came out at 26.1 ± 8.8 pg/mg. The “TNF-α (Percentage to group supplied with normal saline solution after treating TNBS)” value in the assay with TNF-alpha [2] is 36.8%. The same compound displayed an IL-6 conc. in the assay with IL-6 of 1.32 ± 0.11 pg/mg. Also, the “MPO activity (Percentage to group supplied with normal saline solution after treating TNBS)” value in the assay on Myeloperoxidase (MPO) was 47.8%. Also, the IL-1 beta conc. in the assay on IL-1 beta turned out to be 16.30 ± 3.38 pg/mg.

For the origin of these results see patent US20170368089A1, “COMPOSITION FOR PREVENTING OR TREATING COLITIS” (UNIVERSITY-INDUSTRY COOPERATION GROUP OF KYUNG HEE …, priority 2012, published 2017).
